Patent US20260176319A1, “PEPTIDE ANALOGS AND METHODS OF USING THE SAME” (Kallyope, Inc., priority 2024, published 2026)
Converted amounts (≈) assume the structure as drawn. Starred links: 1 amine or outer side, 2 acyl side, 3 side chain; linkers in the order of their positions; H or OH if unused. Non-standard residues stand in square brackets, D forms with d. Residues, ends and D or L forms follow the SMILES beside them. *: point of attachment. Trp(7-Me) = Cc1cccc2c(C[C@H](N)C(=O)O)c[nH]c12; C20 diacid = O=C(O)CCCCCCCCCCCCCCCCCCC(=O)*; γGlu = O=C(O)[C@H](CCC(=O)[*:2])N[*:1]; Nle = CCCC[C@H](N)C(=O)O; β3hA = C[C@H](N)CC(=O)O; AEEA = NCCOCCOCC(=O)O

Key:
[1] = Food intake and body weight after subcutaneous administration in mice, 16 hours (Example A-2b); type: in vivo; conditions: male C57BL/6J mice, single subcutaneous dose, peptide 500 nmol/kg, high fat diet
Text: Male C57BL/6J mice, approximately 10 weeks old (Jackson Laboratory), were group housed in a 12-h light cycle room (6:00 AM on, 6:00 PM off) upon arrival and acclimated to the facility for a minimum of 1 week prior to the study. Animals were provided standard rodent chow (PicoLab Rodent Diet, 5053) ad libitum. Animals were single caged for a minimum of 3 days prior to the study. During the period prior to the study day, mice were exposed to one pellet of high fat diet (Research Diets D12492i) to avoid any effects of novelty in the study. On three separate days during this run-in period, mice were given one dose of phosphate-buffered saline (PBS; 5 mL/kg) by subcutaneous injection to acclimate them to the procedure. For baseline measures, pre-weighed meals of standard rodent chow were provided to each animal following acclimation dosing at 3:30 PM, and body weight was recorded. The next morning at 9:30 AM, food intake and body weight measurements were recorded at 16 hours following the presentation of the pre-weighed meal. These measurements and the resulting body weight changes were then used to assign mice to balanced cohorts. On the day of the study, mice were weighed and given a subcutaneous dose of either vehicle (PBS, 5 mL/kg; pH 5.0-8.5) or a peptide of the disclosure (500 nmol/kg; pH 5.0-8.5). Following dosing, a pre-weighed high fat diet was provided. Food intake and body weight measurements were taken at 16 hours following the provision of the pre-weighed high fat diet. […] Table 6 below describes the percent reduction in food intake and the percent body weight (BW) change with peptides as measured relative to the vehicle group.

human GRP receptors = biological target: T1, human GRP receptors (Homo sapiens, UniProt P30550); assay: IP1 GRPR activity: HTRF IP1-Gq assay in U2OS cells stably expressing human GRP receptors; type: cell-based; conditions: 90 minutes incubation, read-out: hIP1 GRPR EC50
T1 construct: host or cells: U2OS

physchem = type: physicochemical; conditions: pH 8
Description: Solubility was measured in an appropriate buffer as follows. A known amount of compound, e.g., 20 mg, was placed in a vessel equipped with a stirring bar. A measured amount of buffer (e.g., 200-400 μL of 200 mM phosphate buffer) was added, and in some cases, additional surfactants, e.g., polysorbate 80 (PS80), polyethylene glycol (15)-hydroxystearate (Solutol® HS15), etc., were added. A measured amount of purified water (e.g., 1.6 mL) was added, and the pH was adjusted to the desired pH, e.g., pH 8, by addition of 0.5 N aqueous NaOH or 0.5 N aqueous HCl. The volume of added acid or base was recorded. The mixture was stirred at 300 rpm for 10 min. Additional purified water was added to reach a given volume, e.g., 4 mL, of solution. After stirring the sample at 300 rpm at room temperature for 1 h or 24 h, the appearance was observed and the pH measured.

[2] = Pharmacokinetics after intravenous peptide administration in mice; set-up: species or system C57BL/6 mice; conditions: C57BL/6, mouse, in vivo, iv, 2 mg/kg
Description: GPR-10 and peptides were dosed IV at 2 mg/kg as a formulation of 0.4 mg/mL in […]+65% water (pH 6-7).

T1 sequence (P30550 whole entry): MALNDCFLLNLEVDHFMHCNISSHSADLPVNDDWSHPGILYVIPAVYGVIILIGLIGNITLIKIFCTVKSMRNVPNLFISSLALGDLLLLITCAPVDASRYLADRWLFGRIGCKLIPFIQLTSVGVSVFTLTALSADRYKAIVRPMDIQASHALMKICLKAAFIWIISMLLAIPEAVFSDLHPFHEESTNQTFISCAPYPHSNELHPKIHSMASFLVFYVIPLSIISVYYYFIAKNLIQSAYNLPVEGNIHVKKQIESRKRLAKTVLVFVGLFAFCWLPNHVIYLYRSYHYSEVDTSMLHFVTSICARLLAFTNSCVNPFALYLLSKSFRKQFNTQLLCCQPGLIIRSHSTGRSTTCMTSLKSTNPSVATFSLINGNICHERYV

EC50 (human GRP receptors): 1.8 nM
solubility at 24 h (physchem): 4200 µg/mL (≈ 2070 µM)
clearance [2]: 0.18 mL/min/kg
half-life [2]: 7.5 h
SMILES: CCCC[C@H](NC(=O)[C@H](CC(C)C)NC(=O)[C@H](Cc1c[nH]cn1)NC(=O)C[C@H](C)NC(=O)[C@@H](NC(=O)[C@H](C)NC(=O)[C@H](Cc1c[nH]c2c(C)cccc12)NC(=O)[C@H](Cc1c[nH]cn1)NC(=O)[C@H](CCC(=O)O)NC(=O)CNC(=O)COCCOCCNC(=O)COCCOCCNC(=O)CC[C@H](NC(=O)CC[C@H](NC(=O)CCCCCCCCCCCCCCCCCCC(=O)O)C(=O)O)C(=O)O)C(C)C)C(N)=O [Peptide 247, Eicosanedioyl-γGlu-γGlu-OEG-OEG-Gly-Glu-His-7MeTrp-Ala-Val-BABA-His-Leu-Nle-NH2] ({C20 diacid-γGlu-γGlu-AEEA-AEEA}-GEH[Trp(7-Me)]AV[β3hA]HL[Nle]-NH2)
% Body Weight Change at 16 hours (compared with vehicle) [1]: −11%
% Reduction in Cumulative Food Intake over 16 hours (compared with vehicle) [1]: 65%
